Experimental data from PubChem BioAssay (NCI).
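Exposure lasted 48 hours, with cells grown in 96-well plates and compounds tested at five concentrations. Here, GI50 denotes the concentration required for 50% inhibition of growth. The concentration for full growth arrest is given as TGI.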

Experiments:
Experiment in all cases: NCI anticancer screen, dose series, 48 h
[1] = tested on: OVCAR-3 ovarian
[2] = tested on: SNB-19 CNS
[3] = tested on: SK-MEL-5 melanoma
[4] = tested on: 786-0 renal
[5] = tested on: HOP-62 NSCLC
[6] = tested on: RPMI-8226 leukemia
[7] = tested on: A549 NSCLC
[8] = tested on: OVCAR-5 ovarian
[9] = tested on: HS 578T breast
[10] = tested on: MDA-MB-435
[11] = tested on: SK-MEL-2 melanoma
[12] = tested on: KM12 colon
[13] = tested on: OVCAR-8 ovarian
[14] = tested on: SR leukemia
[15] = tested on: A498 renal
[16] = tested on: HCC-2998 colon
[17] = tested on: NCI/ADR-RES ovarian
[18] = tested on: OVCAR-4 ovarian
[19] = tested on: DU-145 prostate
[20] = tested on: UACC-257 melanoma
[21] = tested on: SF-268 CNS
[22] = tested on: TK-10 renal
[23] = tested on: T-47D breast
[24] = tested on: LOX IMVI melanoma
[25] = tested on: SK-MEL-28 melanoma
[26] = tested on: U251 CNS
[27] = tested on: SF-539 CNS
[28] = tested on: CCRF-CEM leukemia
[29] = tested on: MALME-3M melanoma
[30] = tested on: M14 melanoma
[31] = tested on: NCI-H23 lung
[32] = tested on: MCF7 breast
[33] = tested on: ACHN renal
[34] = tested on: MDA-MB-231 breast
[35] = tested on: UO-31 renal
[36] = tested on: BT-549 breast
[37] = tested on: SK-OV-3 ovarian
[38] = tested on: COLO 205 colon
[39] = tested on: SNB-75 CNS
[40] = tested on: HCT-116 colon
[41] = tested on: HCT-15 colon
[42] = tested on: CAKI-1 renal
[43] = tested on: SW-620 colon
[44] = tested on: HOP-92 NSCLC
[45] = tested on: HT29 colon
[46] = tested on: SN12C renal
[47] = tested on: EKVX NSCLC
[48] = tested on: HL-60(TB) leukemia
[49] = tested on: UACC-62 melanoma
[50] = tested on: NCI-H226 lung
[51] = tested on: NCI-H460 lung
[52] = tested on: NCI-H522 lung
[53] = tested on: PC-3 prostate
[54] = tested on: SF-295 CNS
[55] = tested on: MOLT-4 leukemia
[56] = tested on: RXF 393 renal

COCCOCCOCCOCCOc1ccc2c(c1)C(=O)c1nc3ncccc3c(=O)n1-2
GI50 [1]: 969 nM
TGI [1]: 3390 nM
GI50 [2]: 1280 nM
TGI [2]: 2640 nM
GI50 [3]: 158 nM
TGI [3]: 312 nM
GI50 [4]: 2170 nM
TGI [4]: 9460 nM
GI50 [5]: 744 nM
TGI [5]: 2180 nM
GI50 [6]: 1860 nM
TGI [6]: 4940 nM
GI50 [7]: 465 nM
TGI [7]: 2410 nM
GI50 [8]: 1780 nM
TGI [8]: 3160 nM
GI50 [9]: 1090 nM
TGI [9]: 4020 nM
GI50 [10]: 188 nM
TGI [10]: 364 nM
GI50 [11]: 2420 nM
TGI [11]: 6210 nM
GI50 [12]: 1220 nM
TGI [12]: 2710 nM
GI50 [13]: 1570 nM
TGI [13]: 6890 nM
GI50 [14]: 2250 nM
TGI [14]: > 100000 nM
GI50 [15]: 1770 nM
TGI [15]: 3160 nM
GI50 [16]: 1320 nM
TGI [16]: 2790 nM
GI50 [17]: 2090 nM
TGI [17]: 6410 nM
GI50 [18]: 1740 nM
TGI [18]: 4230 nM
GI50 [19]: 540 nM
TGI [19]: 1790 nM
GI50 [20]: 763 nM
TGI [20]: 2380 nM
GI50 [21]: 1540 nM
TGI [21]: 5170 nM
GI50 [22]: 1290 nM
TGI [22]: 2690 nM
GI50 [23]: 3030 nM
TGI [23]: 9040 nM
GI50 [24]: 390 nM
TGI [24]: 1620 nM
GI50 [25]: 765 nM
TGI [25]: 2030 nM
GI50 [26]: 1290 nM
TGI [26]: 2560 nM
GI50 [27]: 551 nM
TGI [27]: 1710 nM
GI50 [28]: 2430 nM
TGI [28]: 7400 nM
GI50 [29]: 155 nM
TGI [29]: 339 nM
GI50 [30]: 312 nM
TGI [30]: 1440 nM
GI50 [31]: 279 nM
TGI [31]: 1180 nM
GI50 [32]: 799 nM
TGI [32]: 2200 nM
GI50 [33]: 2640 nM
TGI [33]: 8190 nM
GI50 [34]: 2930 nM
TGI [34]: 52000 nM
GI50 [35]: 1530 nM
TGI [35]: 6210 nM
GI50 [36]: 1100 nM
TGI [36]: 2300 nM
GI50 [37]: 2810 nM
TGI [37]: 6990 nM
GI50 [38]: 1880 nM
TGI [38]: 3350 nM
GI50 [39]: 2070 nM
TGI [39]: 3650 nM
GI50 [40]: 1560 nM
TGI [40]: 4460 nM
GI50 [41]: 1210 nM
TGI [41]: 2600 nM
GI50 [42]: 663 nM
TGI [42]: 2020 nM
GI50 [43]: 1150 nM
TGI [43]: 2360 nM
GI50 [44]: 8230 nM
TGI [44]: 29500 nM
GI50 [45]: 1470 nM
TGI [45]: 3700 nM
GI50 [46]: 1380 nM
TGI [46]: 2910 nM
GI50 [47]: 1870 nM
TGI [47]: 5280 nM
GI50 [48]: 1800 nM
TGI [48]: 5050 nM
GI50 [49]: 371 nM
TGI [49]: 1070 nM
GI50 [50]: 1650 nM
TGI [50]: 3310 nM
GI50 [51]: 400 nM
TGI [51]: 1390 nM
GI50 [52]: 1670 nM
TGI [52]: 3300 nM
GI50 [53]: 1670 nM
TGI [53]: 16500 nM
GI50 [54]: 351 nM
TGI [54]: 1400 nM
GI50 [55]: 3610 nM
TGI [55]: > 100000 nM
GI50 [56]: 2650 nM
TGI [56]: 9260 nM
